Values quoted from earlier work as cited in patent publication US8492370B2, “Compounds and methods for their production” (Bristol-Myers Squibb Company, priority 2006, dated 2013).

What was measured:
[1] = molecular target: terminal deoxynucleotidyl transferase (Homo sapiens, UniProt P04053)
Hsp90 = Hsp90 (Homo sapiens, UniProt P07900)
SKBr3 = conditions: compared with geldanamycin and 17-AAG

Sequence of terminal deoxynucleotidyl transferase (P04053 whole entry, species assumed): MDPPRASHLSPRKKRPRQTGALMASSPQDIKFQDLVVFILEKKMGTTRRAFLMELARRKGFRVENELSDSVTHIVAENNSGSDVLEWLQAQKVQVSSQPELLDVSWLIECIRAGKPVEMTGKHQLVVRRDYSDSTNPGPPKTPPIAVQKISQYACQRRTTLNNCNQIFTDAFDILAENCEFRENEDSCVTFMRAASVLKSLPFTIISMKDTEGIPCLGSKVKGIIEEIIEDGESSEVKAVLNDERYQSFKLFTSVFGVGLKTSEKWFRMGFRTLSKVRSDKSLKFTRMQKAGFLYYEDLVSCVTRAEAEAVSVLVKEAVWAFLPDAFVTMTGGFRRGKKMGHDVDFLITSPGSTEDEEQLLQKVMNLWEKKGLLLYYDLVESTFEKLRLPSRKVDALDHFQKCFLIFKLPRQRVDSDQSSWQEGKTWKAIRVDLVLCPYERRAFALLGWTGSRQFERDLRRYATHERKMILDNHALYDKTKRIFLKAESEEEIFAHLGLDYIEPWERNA

Compound | Reverse transcriptase activity inhibition (Reverse transcriptase) | terminal deoxynucleotidyl transferase activity inhibition [1] | binding affinity to Hsp90, fold greater than 17-AAG (Hsp90; relative to 17-AAG) | binding affinity to Hsp90, fold greater than geldanamycin (Hsp90; relative to geldanamycin) | IC50 measurement using SKBr3 (SKBr3)
CO[C@H]1[C@@H](OC)C[C@H](C)[C@@H](OC)C2=CC(=O)C=C(NC(=O)/C(C)=C/C=C\[C@H](C)[C@@H](OC(N)=O)/C(C)=C/[C@@H]1C)C2=O [macbecin] | not inhibited | not inhibited | – | – | –
CO[C@H]1C[C@H](C)Cc2cc(O)cc(c2)NC(=O)/C=C/CC[C@H](OC)[C@@H](OC(N)=O)/C(C)=C/[C@H](C)[C@H]1O [KOSN1559] | – | – | 8 fold | 4 fold | not reflected in an improvement
